Experimental data published in patent US10351586B2, “Cytidine derivative dimers and applications thereof” (CHANGZHOU FANGYUAN PHARMACEUTICAL CO., LTD, priority 2014, dated 2019).
Marks after values point to notes of the source that are not given here.

Experiments:
[1] = system: HCT-116 human colon cancer xenografts; test: Tumor growth inhibition of HCT-116 human colon cancer xenografts in nude mice; assay type: in vivo, Balb/c nude mice; conditions: for Relative tumor proliferation rate (T/C %) / Relative tumor volume (RTV) / Tumor growth inhibition rate (TGI %) / Tumor volume of HCT-116 human colon cancer xenografts: single IP injection (QD×1), D1 and D2 400 mg/kg, D3 350 mg/kg, D4 300 mg/kg; for Tumor volume of HCT-116 human colon cancer xenografts: Mean±SEM
Description: 2. Preparation of the test substance was performed by dissolving the test substance using the following solvents:
3. Animal experiments were performed. […] Animals were numbered using their tail number.
4.1 Tumor cells were human HCT-116 colon cancer cells purchased from the Institute of Cell Biology, Chinese Academy of Sciences (Beijing, China). F-12 medium (containing 10% FBS) was used to culture cells in a carbon dioxide incubator at about 37° C., saturated humidity, under 5% CO2 and 95% air. Before inoculation, cells in logarithmic growth phase were collected. After digested by 0.25% trypsin, the cells were washed with PBS once. The cells were resuspended with serum-free medium and counted. Serum-free medium were used for cell resuspension, until the cell concentration was adjusted to about 3×10^7 cell/mL.
4.2 Animal inoculation and grouping were performed.
The diameters (D) of the tumor nodules were measured three times a week with a circle sizer ruler. In addition, the following formula was applied to calculate the volume of the tumor nodules (V): V=[…](D/2)^3 generally for a spherical shape. Evaluation indexes of antitumor activity were tumor growth inhibition rate TGI (%) and relative tumor proliferation rate T/C (%).
The calculation formula of TGI was: TGI (%)=(Vcontrol−VTreatment)/Vcontrol)×100%. The relative tumor volume (RTV) was calculated by: RTV=Vt/V0, where V0 is the tumor volume at the time of group administration, and Vt is the tumor volume at the time of measurement.
The mice were weighed 3 times every week.
4.5 Data and statistical analysis were provided.

[2] = Body weight / toxicity of a single intraperitoneal injection in HCT-116 colon tumor-bearing nude mice; conditions: for Average rate of weight change of the animals / Average weight of the animals: single IP injection (QD×1), D1 and D2 400 mg/kg, D3 350 mg/kg, D4 300 mg/kg; for Average weight of the animals: Mean±SEM
Description: Corresponding test substance was weighed and put into a 5 mL glass tube. The test substance was dissolved in ethanol under the stirring by a 5 mm magnetic stirrer. After a complete dissolution, Cremophor EL was added with continuous stirring. Immediately prior to the user of the test substance, the labeled amount of physiological saline was added and stirred.
Animal experiments were performed. The animals were female Balb/c nude mice at specific pathogen free (SPF) level and were supplied from Shanghai Sippr/BK Lab Animal Ltd. (Shanghai, China). […] These animals were at the age of about 7 weeks to about 9 weeks at the beginning of the experiments and had the weight of about 18 grams to about 22 grams at the beginning of the experiment. The animals had acclimatization duration of about 5 days to about 7 days. Animals were numbered using their tail number. The animal room was maintained at about 23±2° C., 40%-70% humidity, with alternating light and dark every 12 hours.
4.2 Animal inoculation and grouping were performed. Under aseptic conditions, each nude mice was injected with 0.1 mL cell suspension into the right hind leg subcutaneously (3×10^6 cell/mouse). When the size of the tumor grew to have a volume of about 60-150 mm^3, nude mice with a similar tumor size and a desirable shape (e.g., with substantially same shape such as a substantially spherical shape, without having irregular shapes or multiple tumors grouped together) were selected and grouped. In the experiment, there were six mice in each group.
The mice in control group were injected with a mixed solution including ethanol, Cremophor EL and normal saline at a ratio of 5:5:90.
4.4 Clinical symptoms were provided. All clinical symptoms of each animal were recorded at the beginning of the experiments and during the experiments. The observation was performed at the same time every day.
After administration of the test substance, when the weight reduction was >20%, when the animal was dying, or when the tumor volume exceeds about 2800 mm^3, the animal were euthanized by applying CO2. The tumor was separated and weighed, an autopsy was performed, and visual inspection was conducted and recorded on whether there were pathological changes in the organs.

[3] = D1 400 mg/kg Day 7, D2 400 mg/kg Day 9, D3 350 mg/kg Day 11, D4 300 mg/kg Day 11, single IP

CCCCOC(=O)Nc1ccn(C2OC(COC(=O)CCCC(=O)OC[C@H]3O[C@@H](n4ccc(NC(=O)OCCCC)nc4=O)C(F)(F)[C@@H]3OC(=O)OCCCC)C(OC(=O)OCCCC)C2(F)F)c(=O)n1 (stereo in doubt) [Compound D1, 1,5-di-[4-N-(n-butyloxycarbonyl)-3′-O-(n-butoxycarbonyl)-2′-deoxy-2′,2′-difluoro-cytidine]glutarate]
Relative tumor proliferation rate, minimum [1, 3]: 28.36%
Tumor inhibition rate, maximum [1, 3]: 91.49%
Relative tumor proliferation rate (T/C %) ([1]; Day 0): 0.00%
Relative tumor volume (RTV) ([1]; Day 0): 1.00
Tumor growth inhibition rate (TGI %) ([1]; Day 0): 0.00%
Tumor volume of HCT-116 human colon cancer xenografts ([1]; Day 0): 39.36 ± 6.16** mm^3
Relative tumor proliferation rate (T/C %) ([1]; Day 1): 80.13%
Relative tumor volume (RTV) ([1]; Day 1): 1.35 ± 0.24
Tumor growth inhibition rate (TGI %) ([1]; Day 1): 67.76%
Tumor volume of HCT-116 human colon cancer xenografts ([1]; Day 1): 58.20 ± 17.45** mm^3
Relative tumor proliferation rate (T/C %) ([1]; Day 2): 65.15%
Relative tumor volume (RTV) ([1]; Day 2): 1.35 ± 0.24
Tumor growth inhibition rate (TGI %) ([1]; Day 2): 73.77%
Tumor volume of HCT-116 human colon cancer xenografts ([1]; Day 2): 58.20 ± 17.45** mm^3
Relative tumor proliferation rate (T/C %) ([1]; Day 4): 32.20%
Relative tumor volume (RTV) ([1]; Day 4): 0.89 ± 0.12
Tumor growth inhibition rate (TGI %) ([1]; Day 4): 87.46%
Tumor volume of HCT-116 human colon cancer xenografts ([1]; Day 4): 37.24 ± 9.27** mm^3
Relative tumor proliferation rate (T/C %) ([1]; Day 7): 28.36%
Relative tumor volume (RTV) ([1]; Day 7): 1.16 ± 0.79
Tumor growth inhibition rate (TGI %) ([1]; Day 7): 91.49%
Tumor volume of HCT-116 human colon cancer xenografts ([1]; Day 7): 36.82 ± 28.63** mm^3
Relative tumor proliferation rate (T/C %) ([1]; Day 9): 28.77%
Relative tumor volume (RTV) ([1]; Day 9): 1.61 ± 0.98
Tumor growth inhibition rate (TGI %) ([1]; Day 9): 91.42%
Tumor volume of HCT-116 human colon cancer xenografts ([1]; Day 9): 50.63 ± 36.49** mm^3
Relative tumor proliferation rate (T/C %) ([1]; Day 11): 34.47%
Relative tumor volume (RTV) ([1]; Day 11): 3.18 ± 2.18
Tumor growth inhibition rate (TGI %) ([1]; Day 11): 89.65%
Tumor volume of HCT-116 human colon cancer xenografts ([1]; Day 11): 101.02 ± 78.57** mm^3
Relative tumor proliferation rate (T/C %) ([1]; Day 14): 64.15%
Relative tumor volume (RTV) ([1]; Day 14): 8.88 ± 6.75
Tumor growth inhibition rate (TGI %) ([1]; Day 14): 80.16%
Tumor volume of HCT-116 human colon cancer xenografts ([1]; Day 14): 285.66 ± 237.94* mm^3
Relative tumor proliferation rate (T/C %) ([1]; Day 16): 89.47%
Relative tumor volume (RTV) ([1]; Day 16): 15.44 ± 11.56
Tumor growth inhibition rate (TGI %) ([1]; Day 16): 72.62%
Tumor volume of HCT-116 human colon cancer xenografts ([1]; Day 16): 495.95 ± 408.8** mm^3
Relative tumor proliferation rate (T/C %) ([1]; Day 18): 106.69%
Relative tumor volume (RTV) ([1]; Day 18): 20.37 ± 13.96
Tumor growth inhibition rate (TGI %) ([1]; Day 18): 67.62%
Tumor volume of HCT-116 human colon cancer xenografts ([1]; Day 18): 647.07 ± 503.28** mm^3
Relative tumor proliferation rate (T/C %) ([1]; Day 21): 138.14%
Relative tumor volume (RTV) ([1]; Day 21): 32.34 ± 20.40
Tumor growth inhibition rate (TGI %) ([1]; Day 21): 58.38%
Tumor volume of HCT-116 human colon cancer xenografts ([1]; Day 21): 1017.61 ± 749.53 mm^3
Relative tumor proliferation rate (T/C %) ([1]; Day 23): 163.55%
Relative tumor volume (RTV) ([1]; Day 23): 32.34 ± 20.40
Tumor growth inhibition rate (TGI %) ([1]; Day 23): 56.91%
Tumor volume of HCT-116 human colon cancer xenografts ([1]; Day 23): 1017.61 ± 749.53 mm^3
Relative tumor proliferation rate (T/C %) ([1]; Day 25): 155.09%
Relative tumor volume (RTV) ([1]; Day 25): 33.53 ± 19.21
Tumor growth inhibition rate (TGI %) ([1]; Day 25): 59.56%
Tumor volume of HCT-116 human colon cancer xenografts ([1]; Day 25): 1044.35 ± 722.80 mm^3
Relative tumor proliferation rate (T/C %) ([1]; Day 28): 198.76%
Relative tumor volume (RTV) ([1]; Day 28): 42 ± 22
Tumor growth inhibition rate (TGI %) ([1]; Day 28): 51.78%
Tumor volume of HCT-116 human colon cancer xenografts ([1]; Day 28): 1296.79 ± 847.87 mm^3
Relative tumor proliferation rate (T/C %) ([1]; Day 30): 209.10%
Relative tumor volume (RTV) ([1]; Day 30): 51.88 ± 24.88
Tumor growth inhibition rate (TGI %) ([1]; Day 30): 43.36%
Tumor volume of HCT-116 human colon cancer xenografts ([1]; Day 30): 1589.29 ± 983.15 mm^3
Body weight after drug administration (in words) ([2]; D1 400 mg/kg, single IP, Day 4): significantly decreased
Average rate of weight change of the animals ([2]; Day 0): 0.00%
Average weight of the animals ([2]; Day 0): 19.98 ± 0.49 g
Average rate of weight change of the animals ([2]; Day 1): −2.55 ± 0.77%
Average weight of the animals ([2]; Day 1): 19.48 ± 0.58 g
Average rate of weight change of the animals ([2]; Day 2): −12.18 ± 2.63 %
Average weight of the animals ([2]; Day 2): 17.45 ± 0.81 g
Average rate of weight change of the animals ([2]; Day 4): −18.58 ± 4.66 %
Average weight of the animals ([2]; Day 4): 16.15 ± 1.08 g
Average rate of weight change of the animals ([2]; Day 7): −4.23 ± 3.77%
Average weight of the animals ([2]; Day 7): 19.80 ± 1.40 g
Average rate of weight change of the animals ([2]; Day 9): 0.42 ± 1.92%
Average weight of the animals ([2]; Day 9): 20.75 ± 1.05 g
Average rate of weight change of the animals ([2]; Day 11): 2.77 ± 4.27%
Average weight of the animals ([2]; Day 11): 21.25 ± 1.55 g
Average rate of weight change of the animals ([2]; Day 14): 3.29 ± 3.29%
Average weight of the animals ([2]; Day 14): 21.35 ± 1.35 g
Average rate of weight change of the animals ([2]; Day 16): 5.24 ± 2.74%
Average weight of the animals ([2]; Day 16): 21.75 ± 1.25 g
Average rate of weight change of the animals ([2]; Day 18): 12.70 ± 4.20 %
Average weight of the animals ([2]; Day 18): 23.30 ± 1.60 g
Average rate of weight change of the animals ([2]; Day 21): 7.90 ± 2.90 %
Average weight of the animals ([2]; Day 21): 22.30 ± 1.30 g
Average rate of weight change of the animals ([2]; Day 23): 9.32 ± 3.82 %
Average weight of the animals ([2]; Day 23): 22.60 ± 1.50 g
Average rate of weight change of the animals ([2]; Day 25): 12.20 ± 4.70%
Average weight of the animals ([2]; Day 25): 23.20 ± 1.70 g
Average rate of weight change of the animals ([2]; Day 28): 15.14 ± 3.64%
Average weight of the animals ([2]; Day 28): 23.80 ± 1.50 g
Average rate of weight change of the animals ([2]; Day 30): 14.22 ± 2.22%
Average weight of the animals ([2]; Day 30): 23.60 ± 1.20 g
